Measured values published in BigSolDB 2.1.

Details: in water

NCCS(=O)(=O)O
Details	solubility (mole fraction)
278.05 K	0.00796
281.25 K	0.00932
288.75 K	0.0119
289.85 K	0.0128
298.15 K	0.017
305.35 K	0.0203
308.25 K	0.0213
310.95 K	0.0233
314.85 K	0.0261
318.35 K	0.0291
321.55 K	0.0321
331.75 K	0.0403
340.95 K	0.0477
345.15 K	0.0526
350.25 K	0.0585
353.55 K	0.0646
